Test results from ChEMBL document CHEMBL3507680, “University of Dundee, Gates Library screen for HepG2 cell viability”.

Experiment: Human HepG2 cell viability assay in 384 well format
Format: toxicity, cell-based
Parameters: dose 125 nL, time 70.5 hour; cytotoxicity at 70.5 h: concentration not given beside the values
Conditions: HepG2 cells, read-out: Inhibition

Row | Compound | cytotoxicity at 70.5 h
1 | CCCn1ncc(C(=O)NC2CCN(C3CCOCC3)CC2)c1C | -2.11%
2 | COc1ccc(C2=CCN(C(=O)CN(C)CC(C)C#N)CC2)cc1 (configuration not stated) | 44.4%
3 | Clc1cc(Cl)cc(OCCN2CCC(n3cncn3)CC2)c1 | -0.108%
4 | Cc1cc(C)n(C2CCCN(C(=O)c3ccc(N(C)C)nn3)C2)n1 (configuration not stated) | -4.23%
5 | CC(C)c1nc(C2CCCN2CC(=O)Nc2nncs2)no1 (configuration not stated) | -1.18%
6 | CCN(CC)Cc1cnc2n1CCN(Cc1c(C)noc1C)CC2 | 5.41%
7 | COc1cc(N2CCC3(CCCN(C(=O)c4cnccn4)C3)C2)ncn1 (configuration not stated) | 17%
8 | CCCc1noc(C2CC(=O)N(Cc3ccccc3)C2)n1 (configuration not stated) | -8.97%
9 | Cc1ccc(C)n1-c1c(C(=O)NCC(c2ccsc2)N(C)C)cnn1C (configuration not stated) | -14.4%
10 | CCN1CCCC(NC(=O)CCn2c(C(F)F)cc3cccnc32)C1 (configuration not stated) | -4.62%
11 | CC(C)[C@@H]1CN(Cc2ccccc2C#N)C[C@H]1C(=O)O | 21%
12 | COCC(=O)N1CCN(C(=O)NC(C)C)CC2(CC(=O)N(C)C2)C1 (configuration not stated) | 9.18%
13 | CCCOCC(=O)N1CCc2nc(NC)nc(C(=O)N3CCCC3)c2C1 | -4.23%
14 | CN(Cc1nnc2n1CCC2)C(=O)CCc1ccc2c(c1)OCO2 | -7.61%
15 | Cc1nn(C)c(Cl)c1C1CCCN1CC(=O)NC1CCCCC1 (configuration not stated) | 5.03%
16 | CC(C)OCc1ccccc1CNC(=O)C(C)(C)C | 0.195%
17 | COc1c(CNC2(c3ccc(Cl)cc3)CCC2)c(C)nn1C | 5.64%
18 | CN(C)C[C@H]1C[C@@H]2CN(C(=O)c3ccno3)C[C@@H]2O1 | -16.7%
19 | Cc1nnc(C(C)N2CCc3[nH]c4ccc(Cl)cc4c3C2)o1 (configuration not stated) | -4.39%
20 | CC(C)C1SCC(=O)Nc2c1c(O)nn2C1CCCCC1 (configuration not stated) | -23.1%
21 | CCNC(=O)[C@@H]1CCCN1[C@@H](C(=O)NC)c1ccccc1 | -8.33%

Row | Compound | cytotoxicity at 70.5 h
22 | CCN(C)S(=O)(=O)N1CCCC(CO)(CC=C(C)C)C1 (configuration not stated) | -2.99%
23 | N#Cc1c(CN2CCCC2Cn2cncn2)cn2ccccc12 (configuration not stated) | -12.3%
24 | CCCn1ccnc1CN1CCC(O)(CN2CCCCC2)C1 (configuration not stated) | -4.35%
25 | CSc1ncc(CNCC2(N3CCCCC3)Cc3ccccc3C2)cn1 | -1.26%
26 | CNC(=O)CN1CCO[C@H]2CN(CC3CC3)C[C@H]21 | -2.3%
27 | CC(=O)c1cccc(OCCCC(=O)N(C)CCc2ccncc2)c1 | -10.1%
28 | Cc1nc(CN(C)CC(c2cccs2)N2CCOCC2)no1 (configuration not stated) | -1.7%
29 | OC(CNCCn1cccn1)COc1cccc(C(F)(F)F)c1 (configuration not stated) | -1.44%
30 | CN(CCc1ccncc1)Cc1nccn1Cc1ccccc1 | 8.96%
31 | O=C1NCc2ccccc2CC12CCN(Cc1c(F)cccc1Cl)C2 (configuration not stated) | -5.69%
32 | CC(C)C(CCO)NC(=O)Nc1ccc(-c2csnn2)cc1 (configuration not stated) | -5.31%
33 | Cn1cc(CN2C[C@H](Oc3ncccc3F)[C@H]3OCCC[C@H]32)cn1 | -10.3%
34 | O=C(C1CCOCC1)N1CCO[C@H]2[C@H](OCC3CC3)CC[C@@H]21 | 2.42%
35 | CN(CCCOc1ccccc1)C(=O)CN1CCc2cncnc2C1 | 8.28%
36 | CC(=O)Nc1nc(C(=O)NC(C)c2ccncc2)cs1 (configuration not stated) | 5.86%
37 | CN1CC[C@H]2CN(C(=O)c3csc(Cc4ccccc4)n3)C[C@H]21 | -5.61%
38 | CN(C)c1ccc(CC2CCN(c3cnccn3)C2)nn1 (configuration not stated) | -8.95%
39 | COC(=O)c1cc2c(=O)[nH]c(=O)n(CCc3ccccc3)c2nc1C | 4.39%
40 | CC(C)C(=O)NS(=O)(=O)CCc1ccccc1 | -12.8%
41 | CC(C)=CCNC1CCCN(c2ccc(C)nn2)C1 (configuration not stated) | -1.28%
42 | COC(=O)N1CCC(NC(=O)CC(C)CCc2ccccc2)CC1 (configuration not stated) | -14%

Row | Compound | cytotoxicity at 70.5 h
43 | O=C(c1ccc(O)nc1)N1Cc2ccccc2OC2(CCOCC2)C1 | 0.0352%
44 | O=C(NCCC1=CCCCC1)NCc1nnc2n1CCC2 | -10.8%
45 | CC(C)c1nn(C)c(N2CCOCC2)c1CNCc1cscn1 | -14.5%
46 | CC(C)(CNC(=O)c1ccc(Cl)o1)NC(=O)OC(C)(C)C | 22.2%
47 | Nc1ncc(-c2ccc(F)cc2)c(C2CCCNC2)n1 (configuration not stated) | 24.3%
48 | Cc1ccccc1-n1cnc(Cl)c1C(=O)O | -8.21%
49 | COCCn1cc(NC(=O)C(C)CCc2ccccc2F)ccc1=O (configuration not stated) | -11.1%
50 | CC(NC(=O)NCCN1CCCC1)c1nncn1C (configuration not stated) | -8.29%
51 | O=C(NCCCO)c1nnsc1-c1ccccc1 | -0.82%
52 | CC(C)CNC(=O)c1ccc(NC(=O)NCC2CC2)cc1Cl | -12.7%
53 | COc1c(C2CCCN2Cc2nnc(C3CC3)n2C)c(C)nn1C (configuration not stated) | -5.73%
54 | CNC(=O)c1ccc(C2CN(C(=O)c3cncs3)CCO2)nc1 (configuration not stated) | -3.2%
55 | O=C(CC1CCCC1)N1CCCC1c1ccc(CN2CCOCC2)cn1 (configuration not stated) | -0.855%
56 | CN1C(Cn2cccn2)C[C@@H]2CN(Cc3nccs3)CC[C@@H]21 (some centres not stated) | -5.16%
57 | CN1CCCC(c2cccc(-c3cccc(F)c3)n2)C1 (configuration not stated) | -5.53%
58 | Cc1nnc(SCCC(=O)N(C)Cc2ccc(F)cc2F)[nH]1 | 4.62%
59 | Cc1cc2[nH]c(CN3CCOC(c4ccc(Cl)cc4)C3)cc(=O)n2n1 (configuration not stated) | -2.79%
60 | COc1ccc(C2=CCN(C(=O)C3CCCN(C(C)=O)C3)CC2)cc1 (configuration not stated) | -1.69%
61 | Cc1ccc2cc(CNCCCN3CCOCC3)c(=O)[nH]c2c1 | -13%
62 | COCCC(=O)N1C[C@H]2CC[C@@H]1CN(C1Cc3ccccc3C1)C2 | -10%
63 | O=S(=O)(c1cc2ccccc2o1)N1CCCC1 | 4.69%

Row | Compound | cytotoxicity at 70.5 h
64 | CCSc1ccc(NC(=O)NC(C)c2c(C)noc2C)cn1 (configuration not stated) | -6.61%
65 | COCCC(=O)N1CC[C@H]2C(=O)N(c3ccsc3)CCO[C@H]2C1 | -1.99%
66 | CNC(=O)C1CCC(NC(=O)N(C)Cc2c(C)noc2C)CC1 (configuration not stated) | 31.6%
67 | O=C(c1ccnc(-n2ccnc2)c1)N1CCCC(n2cccn2)C1 (configuration not stated) | -2.44%
68 | Cc1ncsc1-c1cc(C(=O)NCCO)ccn1 | 21.2%
69 | O=C1CCCN1CC1CN(C(=O)C2CCOCC2)Cc2nccn2C1 (configuration not stated) | -1.66%
70 | COC(=O)c1cccc(NC(=O)CCn2nc(-c3cccs3)oc2=O)c1 | 0.767%
71 | COCc1cc(CNC(=O)c2c(O)cccc2O)n[nH]1 | -1.82%
72 | CCNC(=O)N1CCC2(C1)c1ccccc1S(=O)(=O)N2CCC(C)C (configuration not stated) | -12.9%
73 | COc1ccc(NC2CCc3c2[nH]c(=O)n(C2CCCCC2)c3=O)cc1 (configuration not stated) | -28.5%
74 | CCC(=O)Nc1ccccc1Sc1nc(Br)nn1C | -8.59%
75 | NC(=O)c1ccccc1Oc1cccc(C2CCCNC2)n1 (configuration not stated) | -4.29%
76 | N#Cc1ccc(NCCC(=O)N2CCCc3ccccc32)nc1 | -6.4%
77 | CC(C)c1noc(C2CC(=O)N(CCN(C)C)C2)n1 (configuration not stated) | -8.25%
78 | CC1(C)CC(N2CCN(C3CCCC3)C(CCO)C2)CC(C)(C)C1 (configuration not stated) | -8.65%
79 | Cc1ccc(CNCC2Cn3nncc3CO2)s1 (configuration not stated) | -4.83%
80 | Cc1nn(C)c(C)c1CCC(=O)N1CCCOC(Cn2cccn2)C1 (configuration not stated) | -2.69%
81 | Fc1cccc(-c2n[nH]cc2-c2nc(CN3CCOCC3)no2)c1 | 15.5%
82 | CCn1nc(C)c(CNC(=O)c2cn(CCC3CCCCN3)nn2)c1C (configuration not stated) | -7.47%
